{"source": "paper PMC12287261", "about": "(Scientific Reports, 2025)", "test_system": "CamASNase", "assay": "initial rates at varied L-asparagine, Lineweaver-Burk", "format": "biochemical, Chryseomicrobium amylolyticum", "conditions": "pH 7.4, 37 °C; L-asparagine 1 to 80 µM", "data": [{"smiles": "NC(=O)C[C@H](N)C(=O)O", "note": "[L-asparagine]", "values": [{"measurement": "Km", "result": 6.36, "unit": "µM"}]}]}
